Experimental data published in article PMC4468608, “A distinct p53 target gene set predicts for response to the selective p53–HDM2 inhibitor NVP-CGM097” (eLife, 2015).
Read-outs that look alike come from different tables or passages of the source.

System: cell lines from the Cancer Cell Line Encyclopedia (CCLE)
Test: High-throughput cell viability assay, CCLE cell line panel (n = 356)
Format: cell-based, human
Conditions: Homo sapiens
Protocol: Cell lines were partitioned into sensitive and insensitive groups based on compound potency (IC50). […] All other cell lines were obtained from ATCC (American Type Culture Collection), DSMZ (Deutsche Sammlung von Mikroorganismen und Zellkulturen), and HSRRB (Health Science Research Resources Bank) and cultured in RPMI or Dulbecco's modified Eagle's medium plus 10% FBS (Invitrogen, Carlsbad, CA) at 37°C, 5% CO2.

COc1cc2c(cc1OC(C)C)[C@H](c1ccc(Cl)cc1)N(c1ccc(N(C)C[C@H]3CC[C@H](N4CCNC(=O)C4)CC3)cc1)C(=O)C2 [NVP-CFC218] was tested, and the IC50 (HCC-56, TP53 MUT) was > 8 µM, the IC50 (HCT 116 TP53(-/-), HCT 116, TP53 WT) was 3.38 µM and the IC50 (HCT-15, HCT-15, TP53 MUT) was > 8 µM. The IC50 (HD-MY-Z, TP53 MUT) was > 8 µM, the IC50 (HEC-50B, TP53 MUT) was > 8 µM and the IC50 (HEC-59, TP53 MUT) was > 8 µM. For the same compound, the IC50 (HEC-151, TP53 MUT) was 7.91 µM, the IC50 (HEL 92.1.7, HEL 92.1.7, TP53 MUT) was > 8 µM and the IC50 (HEY A8, Hey-A8, TP53 WT) was 3.12 µM. For the same compound, the IC50 (HGC-27, HGC-27, TP53 MUT) was 7.41 µM, the IC50 (HH, TP53 MUT) was > 8 µM and the IC50 (HLF, TP53 MUT) was > 8 µM. For the same compound, the IC50 (HMC-1-8, TP53 MUT) was > 8 µM, the IC50 (HPBALL, HPB-ALL, TP53 MUT) was > 8 µM and the IC50 (HSC-2, read-out: NVP- CFC218 IC50 (µM), cell line HSC-2, upper_aerodigestive_tract, TP53 MUT) was > 8 µM. The IC50 (HSC-3, HSC-3, TP53 MUT) was > 8 µM, the IC50 (HSC-4, HSC-4, TP53 MUT) was > 8 µM and the IC50 (HT-29, HT-29, TP53 MUT) was > 8 µM. For the same compound, the IC50 (HT-144, HT-144, TP53 WT) was 3.86 µM, the IC50 (HepG2, Hep G2, TP53 WT) was 1.95 µM and the IC50 (Hs 294T, TP53 MUT) was 3.61 µM. The IC50 (Hs 683, Hs 683, TP53 MUT) was > 8 µM, the IC50 (Hs 695T, TP53 WT) was 3.65 µM and the IC50 (Hs 729, TP53 MUT) was > 8 µM. For the same compound, the IC50 (Hs746T, Hs 746T, TP53 MUT) was > 8 µM, the IC50 (Hs766T, Hs 766T, TP53 MUT) was > 8 µM and the IC50 (Hs 936.T, TP53 WT) was 6.44 µM. The IC50 (Hs-578T, Hs 578T, TP53 MUT) was > 8 µM, the IC50 (HuCCT-1, HuCCT1, TP53 MUT) was > 8 µM and the IC50 (HuT78, HuT 78, TP53 MUT) was > 8 µM. The IC50 (Huh-7, HuH-7, TP53 MUT) was > 8 µM, the IC50 (IA-LM, TP53 MUT) was > 8 µM and the IC50 (IGR-39, IGR-39, TP53 MUT) was > 8 µM. For the same compound, the IC50 (IGROV-1, IGROV1, TP53 MUT) was > 8 µM, the IC50 (IM95, read-out: NVP- CFC218 IC50 (µM), cell line IM95, stomach, TP53 WT) was > 8 µM and the IC50 (IPC-298, IPC-298, TP53 MUT) was > 8 µM. The IC50 (IST-MES2, TP53 MUT) was > 8 µM, the IC50 (J82, TP53 MUT) was > 8 µM and the IC50 (JHH7, JHH-7, TP53 MUT) was > 8 µM. The IC50 (JHH-4, JHH-4, TP53 MUT) was > 8 µM, the IC50 (JHUEM-2, TP53 WT) was 1.73 µM and the IC50 (JMSU-1, JMSU-1, TP53 MUT) was > 8 µM. The IC50 (JVM-3, JVM-3, TP53 WT) was 3.64 µM, the IC50 (K029AX, TP53 WT) was 3.61 µM and the IC50 (KARPAS-299, KARPAS-299, TP53 MUT) was > 8 µM. For the same compound, the IC50 (KATO III, TP53 MUT) was > 8 µM, the IC50 (KCL-22, KCL-22, TP53 MUT) was > 8 µM and the IC50 (KE-39, TP53 MUT) was > 8 µM. The IC50 (KE-97, KE-97, TP53 WT) was 1.38 µM, the IC50 (KMBC-2, TP53 MUT) was 3.55 µM and the IC50 (KMM-1, KMM-1, TP53 MUT) was > 8 µM. For the same compound, the IC50 (KMRC-1, read-out: NVP- CFC218 IC50 (µM), cell line KMRC-1, kidney, TP53 WT) was > 8 µM, the IC50 (KMS-11, KMS-11, TP53 WT) was > 8 µM and the IC50 (KMS-26, KMS-26, TP53 MUT) was > 8 µM. The IC50 (KMS-27, read-out: NVP- CFC218 IC50 (µM), cell line KMS-27, haem._and_lymphoid_tissue, TP53 WT) was > 8 µM, the IC50 (KMS-28BM, read-out: NVP- CFC218 IC50 (µM), cell line KMS-28BM, haem._and_lymphoid_tissue, TP53 WT) was > 8 µM and the IC50 (KNS-42, read-out: NVP- CFC218 IC50 (µM), cell line KNS-42, central_nervous_system, TP53 MUT) was > 8 µM. For the same compound, the IC50 (KNS-60, TP53 MUT) was > 8 µM, the IC50 (KNS-62, KNS-62, TP53 MUT) was > 8 µM and the IC50 (KO52, TP53 MUT) was > 8 µM. For the same compound, the IC50 (KP4, TP53 WT) was > 8 µM, the IC50 (KP-2, TP53 MUT) was > 8 µM and the IC50 (KP-3, TP53 MUT) was > 8 µM. For the same compound, the IC50 (KP-N-SI9s, TP53 WT) was 1.2 µM, the IC50 (KS-1, TP53 WT) was 2.2 µM and the IC50 (KU812, KU812, TP53 MUT) was > 8 µM. For the same compound, the IC50 (KU-19-19, KU-19-19, TP53 WT) was 6.89 µM, the IC50 (KYM-1, TP53 WT) was 2.95 µM and the IC50 (KYSE-30, KYSE-30, TP53 MUT) was > 8 µM. The IC50 (KYSE-70, KYSE-70, TP53 MUT) was > 8 µM, the IC50 (KYSE-140, KYSE-140, TP53 MUT) was > 8 µM and the IC50 (KYSE-180, KYSE-180, TP53 MUT) was > 8 µM. The IC50 (KYSE-410, read-out: NVP- CFC218 IC50 (µM), cell line KYSE-410, oesophagus, TP53 MUT) was > 8 µM, the IC50 (KYSE-450, read-out: NVP- CFC218 IC50 (µM), cell line KYSE-450, oesophagus, TP53 MUT) was > 8 µM and the IC50 (KYSE-510, read-out: NVP- CFC218 IC50 (µM), cell line KYSE-510, oesophagus, TP53 MUT) was > 8 µM. The IC50 (KYSE-520, read-out: NVP- CFC218 IC50 (µM), cell line KYSE-520, oesophagus, TP53 MUT) was > 8 µM, the IC50 (L3.3, TP53 WT) was > 8 µM and the IC50 (L-363, L-363, TP53 MUT) was > 8 µM. For the same compound, the IC50 (L-428, read-out: NVP- CFC218 IC50 (µM), cell line L-428, haem._and_lymphoid_tissue, TP53 MUT) was > 8 µM, the IC50 (LC-1/sq-SF, TP53 MUT) was > 8 µM and the IC50 (LCLC-103H, TP53 MUT) was > 8 µM. For the same compound, the IC50 (LK-2, TP53 MUT) was > 8 µM, the IC50 (LN-18, LN-18, TP53 MUT) was > 8 µM and the IC50 (LN-229, read-out: NVP- CFC218 IC50 (µM), cell line LN-229, central_nervous_system, TP53 WT) was > 8 µM. The IC50 (LOU-NH91, LOU-NH91, TP53 MUT) was > 8 µM.
